In brackets after ≈: the same amount, converted by molar mass.
Key:
Assay in all cases: in vitro antibacterial activity, MIC in microtiter
[1] = system: Enterococcus faecalis ATCC 7,080 (L 149); assay type: cell-based; details: Mueller-Hinton, 0.01% bovine serum albumin, 37° C. 18-24 hours
Description: (§1) The in vitro antibacterial activity of the compounds is determined by means of standard […] tests in microtiter. Iso-Sensitest broth (Oxoid) is used for all bacteria except streptococci (Todd-Wewitt broth, Difco) and enterococci (Mueller-Hinton, Difco). Broth cultures are diluted so that the final inoculum is about 5×10^5 cfu/ml (colony forming units per ml). All broth microdilution MICs are performed in the presence of 0.01% bovine serum albumin (Pentax fraction V, Sigma).

[2] = system: S. epidermidis ATCC 12,228 (L 147); assay type: cell-based; details: Iso-Sensitest broth, 0.01% bovine serum albumin, 37° C. 18-24 hours
Description: as §1

[3] = system: Strep. pyogenes C203 (L 49); assay type: cell-based; details: Todd-Wewitt broth, 0.01% bovine serum albumin, 37° C. 18-24 hours
Description: as §1

[4] = system: Strep. pneumoniae UC41 (L 44); assay type: cell-based; details: Todd-Wewitt broth, 0.01% bovine serum albumin, 37° C. 18-24 hours
Description: as §1

[5] = system: Staph. aureus Tour (L 165); assay type: cell-based; details: Iso-Sensitest broth, 0.01% bovine serum albumin, 37° C. 18-24 hours
Description: as §1

[6] = system: S. haemolyticus clin, isol. (L 602); assay type: cell-based; details: Iso-Sensitest broth, 0.01% bovine serum albumin, 37° C. 18-24 hours
Description: as §1

[7] = system: S. epidermidis clin. isol. (L 533); assay type: cell-based; details: Iso-Sensitest broth, 0.01% bovine serum albumin, 37° C. 18-24 hours
Description: as §1

[8] = system: S. aureus clin. isol. (L 561); assay type: cell-based; details: Iso-Sensitest broth, 0.01% bovine serum albumin, 37° C. 18-24 hours
Description: as §1

[9] = system: S. aurens Smith (L 819); assay type: cell-based; details: Iso-Sensitest broth, 0.01% bovine serum albumin, 37° C. 18-24 hours
Description: as §1, with “(Todd-[…]” for “(Todd-Wewitt”, “ml).” for “ml). All broth microdilution MICs are performed in the presence of 0.01% bovine serum albumin (Pentax fraction V, Sigma).”

[10] = system: E. faecalis clin. isol. (L 502); assay type: cell-based, Enterococcus faecalis; details: Mueller-Hinton, 0.01% bovine serum albumin, 37° C. 18-24 hours
Description: as §1

| Molecule | MIC [1] [µg/mL] | MIC [2] [µg/mL] | MIC [3] [µg/mL] | MIC [4] [µg/mL] | MIC [5] [µg/mL] | MIC [6] [µg/mL] | MIC [7] [µg/mL] | MIC [8] [µg/mL] | MIC [9] [µg/mL] | MIC [10] [µg/mL] |
| --- | --- | --- | --- | --- | --- | --- | --- | --- | --- | --- |
| N[C@H]1C(=O)N[C@@H]2Cc3ccc(c(Cl)c3)Oc3cc4cc(c3O)Oc3ccc(cc3Cl)[C@@H](O)[C@@H]3NC(=O)[C@H](NC(=O)[C@@H]4NC(=O)[C@@H](NC2=O)c2cc(O)cc(c2)Oc2cc1ccc2O)c1ccc(O)c(c1)-c1c(O)cc(O)cc1[C@@H](C(=O)O)NC3=O [teicoplanin aglycon] | 0.13 (≈ 0.108 µM) | 0.06 (≈ 0.05 µM) | 0.13 (≈ 0.108 µM) | 0.13 (≈ 0.108 µM) | 0.13 (≈ 0.108 µM) | 0.25 (≈ 0.209 µM) | 0.016 (≈ 0.0133 µM) | 0.13 (≈ 0.108 µM) | 0.06 (≈ 0.05 µM) |  |
| (L-phenylalanyl)^3 -(D-lysyl)^15 -aglucoteicoplanin dalbaheptide methyl ester | 0.5 | 0.13 | 0.25 | 0.13 | 0.13 | 0.5 | 0.13 | 0.06 | 0.13 | 16 |
| teicoplanin | 0.13 | 8 | 0.13 | 0.13 | 0.13 | 32 | 8 | 8 | 0.25 |  |

Reference: patent US5684127A, “Tetrapeptides deriving from dalbaheptide antibiotics” (Gruppo Lepetit SpA, priority 1995, dated 1997)
